According to patent publication US20090163548A1, “Method of using and comopositions comprising immunomodulatory compounds for the treatment and management of myeloproliferative diseases” (priority 2004, published 2009):
pIC50: −log10 of the molar value.

What was measured:
[1] = tested on: TNF-α; assay: Inhibition of TNF-α production following LPS-stimulation of human PBMC; assay type: cell-based; conditions: LPS-stimulated, read-out: IC50 for inhibiting production of TNF-α following LPS-stimulation of PBMC
Text: (§1) Inhibition of TNF-α production following LPS-stimulation of human PBMC and human whole blood by 3-(4-amino-1-oxo-1,3-dihydro-isoindol-2-yl)-piperidine-2,6-dione or thalidomide was investigated in vitro (Muller et al., Bioorg. Med. Chem. Lett. 9:1625-1630, 1999).

[2] = dog, in vivo
Experimental: The effects of 3-(4-amino-1-oxo-1,3-dihydro-isoindol-2-yl)-piperidine-2,6-dione on cardiovascular and respiratory function were investigated in anesthetized dogs. Two groups of Beagle dogs (2/sex/group) were used. One group received three doses of vehicle only and the other received three ascending doses of 3-(4-amino-1-oxo-1,3-dihydro-isoindol-2-yl)-piperidine-2,6-dione (2, 10, and 20 mg/kg). In all cases, doses of 3-(4-amino-1-oxo-1,3-dihydro-isoindol-2-yl)-piperidine-2,6-dione or vehicle were successively administered via infusion through the jugular vein separated by intervals of at least 30 minutes.
The only statistically significant difference between the vehicle and treatment groups was a small increase in arterial blood pressure (from 94 mmHg to 101 mmHg) following administration of the low dose of 3-(4-amino-1-oxo-1,3-dihydro-isoindol-2-yl)-piperidine-2,6-dione.

[3] = tested on: TNF-α; assay: Inhibition of TNF-α production following LPS-stimulation of human whole blood; assay type: cell-based; conditions: LPS-stimulated, read-out: IC50 for inhibiting production of TNF-α following LPS-stimulation of human whole blood
Text: as §1

[4] = tested on: various cytokines; assay: In vitro studies of effects on the production of various cytokines, comparison with thalidomide; assay type: cell-based; conditions: in all in vitro cytokine production studies
Text: The pharmacological properties of 3-(4-amino-1-oxo-1,3-dihydro-isoindol-2-yl)-piperidine-2,6-dione, including activity comparisons with thalidomide, have been characterized in in vitro studies. Studies examined the effects of 3-(4-amino-1-oxo-1,3-dihydro-isoindol-2-yl)-piperidine-2,6-dione or thalidomide on the production of various cytokines. […] In addition, a safety pharmacology study of 3-(4-amino-1-oxo-1,3-dihydro-isoindol-2-yl)-piperidine-2,6-dione has been conducted in dogs and the effects of 3-(4-amino-1-oxo-1,3-dihydro-isoindol-2-yl)-piperidine-2,6-dione on ECG parameters were examined further as part of three repeat-dose toxicity studies in primates.

**Q.** With Nc1cccc2c1CN(C1CCC(=O)NC1=O)C2=O (stereo not shown) [3-(4-amino-1-oxo-1,3-dihydro-isoindol-2-yl)-piperidine-2,6-dione] as the compound, how does the pIC50 [1] read?
**A.** ~7.00

**Q.** What about the “Arterial blood pressure after administration” value ([2]; both, Beagle, 2 mg/kg) of the same compound?
**A.** 101 mmHg

**Q.** And the “Duration of the increase in arterial blood pressure” value ([2]; both, Beagle, 2 mg/kg)?
**A.** approximately 15 minutes

**Q.** And the “Deviations in femoral blood flow, respiratory parameters, and Qtc interval” value [2]?
**A.** not considered treatment-related

**Q.** What about the “Increase in arterial blood pressure at higher doses” value [2] of the same compound?
**A.** not seen at higher doses

**Q.** And the pIC50 [3]?
**A.** ~6.32

**Q.** And the “Potency relative to thalidomide” value [4]?
**A.** at least 50 times
